Data as given in article PMC7326642 (Current computer-aided drug design, 2021).

Assays:
[1] = biological target: Cyclin A2-CDK2 kinase enzyme (Homo sapiens, UniProt P20248+P24941); assay: ADP-Glo Kinase Assay, screening at 0, 1 and 10 μM; assay type: biochemical; details: for kinase activity reduced to: remaining CDK2 kinase activity
[2] = biological target: cyclin A2-CDK2 complex (Homo sapiens, UniProt P20248+P24941); assay: dose response in the in vitro biochemical kinase assay; details: 0 nM to 100 μM, room temperature

Compound	effect on kinase activity (in words) ([1]; 10 μM compound)	further results
Cc1ccc(Nc2nc(N)nc(N)c2N=O)cc1 [NSC49876]	weakly activated CDK2 activity	–
CCc1c(N)nc(N)nc1Nc1ccc(Cl)c(Cl)c1 [NSC50590]	weakly activated CDK2 activity	–
Cc1cc(Br)ccc1Nc1nc(N)nc(N)c1N=O [NSC66578]	weakly activated CDK2 activity	–
N#Cc1c(Nc2ccc(Br)cc2)[nH]c(=O)[nH]c1=O [NSC73380]	weakly activated CDK2 activity	–
NC(=O)c1c(Nc2ccc(Br)cc2)[nH]c(=O)[nH]c1=O [NSC73381]	weakly activated CDK2 activity	–
N#Cc1c(N)nc(N)nc1Nc1ccc(Br)cc1 [compound 1]	–	IC50 [2]: 6.5 µM; effect on kinase activity (in words) ([1]; 1 μM compound): no significant effect; kinase activity reduced to ([1]; 10 μM compound): 58%
NC(=S)c1cn(C2OC(CO)C(O)C2O)c2ncnc(N)c12 (centres unmarked) [compound 2]	did not further reduce the kinase activity	IC50 [2]: 0.0076 µM; kinase activity reduced to ([1]; 1 μM compound): 43%
